Consider four compounds from patent US20070142417A1, “Substantially Pure 2-{[2-(2-Methylamino-Pyrimidin-4-YL)-1H-Indole-5-Carbonyl]-Amino}-3-Phenylpyridin-2-YL-Amino)-Propionic Acid as an IkB Kinase Inhibitor” (AVENTIS PHARMACEUTICALS INC, priority 2005, published 2007).

In data set [1] the target is T1, IκB kinase (IKK enzyme preparation) (Homo sapiens, UniProt O14920).
T1 sequence (O14920 1-756): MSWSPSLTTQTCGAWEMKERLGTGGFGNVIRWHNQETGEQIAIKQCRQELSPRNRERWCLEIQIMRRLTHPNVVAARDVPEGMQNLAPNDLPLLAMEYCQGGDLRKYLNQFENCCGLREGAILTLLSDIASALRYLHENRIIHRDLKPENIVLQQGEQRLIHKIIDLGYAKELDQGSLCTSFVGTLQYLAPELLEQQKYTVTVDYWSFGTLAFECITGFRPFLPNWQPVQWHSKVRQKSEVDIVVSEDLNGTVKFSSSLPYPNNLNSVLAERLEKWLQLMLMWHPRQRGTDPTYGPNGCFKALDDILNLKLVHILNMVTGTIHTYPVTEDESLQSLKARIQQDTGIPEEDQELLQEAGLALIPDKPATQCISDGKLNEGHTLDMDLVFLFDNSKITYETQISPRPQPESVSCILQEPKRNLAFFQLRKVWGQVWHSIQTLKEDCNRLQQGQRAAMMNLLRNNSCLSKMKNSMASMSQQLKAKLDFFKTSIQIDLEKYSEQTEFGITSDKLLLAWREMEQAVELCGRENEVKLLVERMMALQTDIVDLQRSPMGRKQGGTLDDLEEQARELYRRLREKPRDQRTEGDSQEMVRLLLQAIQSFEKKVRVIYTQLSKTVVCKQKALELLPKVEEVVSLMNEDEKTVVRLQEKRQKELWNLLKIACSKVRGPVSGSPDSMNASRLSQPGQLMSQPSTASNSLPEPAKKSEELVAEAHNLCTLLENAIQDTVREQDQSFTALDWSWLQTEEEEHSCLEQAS
Nature of the data set: IKK-Enzyme ELISA. Format: biochemical. Here is the method: The assay buffer has the following composition (50 mM HEPES, 10 mM MgCl2, 10 mM β-Glycerophosphate, 2 μM Microcystin-LR, 0.01% NP-40, 5 mM DTT).
The IKK enzyme preparation was diluted 1:50 (in-house-made preparation) plus test compound in DMSO (final concentration in well: 2%).
The assay procedures were as follows:
Incubation of enzyme and compound for 30 min;
pSer36-IkB Peptide (Substrate): 40 μM;
Incubation for 45 min and Addition of anti-pSer32-pSer36-IkB Peptid-antibody;
Incubation for 45 min and transfer to protein-G-coated plate;
Incubation for 90 min followed by 3× washing;
Addition of streptavidin-HRP, then incubation 45 min followed by 6× washing;
Addition of TMB and Incubation for 15 min; and
Stop solution and read using photometer.

Data set [2] relates to IL-1β-induced NF-κB activation. Nature of the data set: NF-κB-Luciferase Reporter Mouse Model, dose response determination. The settings on record: for effect on IL-1β-induced NF-κB activity: intranasal dosing 0.3-10 mg/kg, FIGS. 1 and 2. Format: in vivo, Balb/c female mice. Here is the method:
A. NF-κB-Luciferase Reporter Mouse Model Methods employed for mouse imaging studies with Compound (A) and Compound (B). General Description Compounds were used as nanomilled suspensions in 0.2% Tween-80 in PBS and were dosed through the intranasal route. Intranasal drug and inflammatory stimulus administration: Mice are anesthetized in 4% is isoflurane gas in oxygen. A volume of 25 μl is applied to each nostril and the mice are allowed to breathe in the suspension. Balb/c female mice at 6-8 weeks of age were used for studies in which AdV-NFκB-luciferase reporter was instilled in the lung. To imagine mice, they are anesthetized with 4% isoflurane in oxygen. Luciferin is delivered i.p. at a dose of 150 mg/kg. 10 minutes after luciferin injection, the animals are imaged in an IVIS200 system (Xenogen) with a one-minute bioluminescent exposure. Alternatively, 10-15 minutes post luciferin administration, mice are rapidly euthanized and internal tissues are dissected and imaged ex vivo. B. Dose Response Determination 1-2×10^8 pfu adenovirus-NFκB-luciferase is delivered intranasally 3-5 days prior to stimulation (i.n.) with an inflammatory stimulus (IL-1β or LPS). Animals are dosed i.n. with 0.3-10 mg/kg of compound 30 min—1 h prior to challenge with 0.5 μg LPS or 50 ng IL-1β. Animals are then imaged once or several times from 1 h to 24 h after the inflammatory stimulus is administered.
(In general: In a reporter assay the amount or activity of a reporter protein is the signal.)

Data set [3] is described as follows: Pharmacokinetic procedures: compound levels in lung and plasma after intra-tracheal instillation. Format: in vivo, Male Hartley guinea pigs. The settings on record: for systemic exposure after intratracheal administration: i.t. administration; for Kp at 1 h: male, Hartley, guinea pig, lung and plasma, other: intra-tracheal instillation, i.t. instillation 0.01-0.3 mg/kg, 1 h after dosing, depending on the dose, read-out: lung to plasma ratio. How it is done:
C. Pharmacokinetic Procedures
Male Hartley guinea pigs (450-550 g) previously sensitized with ovalbumin were used for the determination of compound levels in lung and plasma. Nanomilled suspensions of Compound (A) and Compound (B) were dosed via intra-tracheal instillation at 0.01, 0.03, 0.1 and 0.3 mg/kg. One hour after dosing, animals were euthanized (Euthasol), and 1 mL blood samples were obtained by cardiac puncture and collected into heparin-coated syringes. Plasma was separated from the cellular component of the blood by centrifugation, and stored at −80° C. until assayed. Lungs were dissected out, blotted dry, weighted and stored in 20-25 mL glass vials individually at −80° C. until assayed for compound levels.
The lung to plasma ratio for Compound (A) ranges from 143 to 284 (depending on the dose) whereas the lung to plasma ratio for Compound (B) ranges from 13 to 44 (depending on the dose). These ratios were obtained by dividing the lung compound levels to that of the corresponding plasma levels at the same dose.

The mark [4] stands for this setting: read-out: IC50 (nM) 1 mM ATP, 1 mM ATP.
The mark [5] stands for this setting: read-out: IC50 (nM) 50 μM ATP, 50 μM ATP.

Like-named read-outs stand apart in the source and are kept apart here.

For `CNc1nccc(-c2cc3cc(C(=O)N[C@@H](CN(c4ccccc4)c4ncccn4)C(=O)O)ccc3[nH]2)n1` [(D)], the half-inhibitory concentration (IC50) in data set [1] (setting [4]) amounted to 3.8 nM.
`CNc1nccc(-c2cc3cc(C(=O)N[C@@H](CN(c4ccccc4)c4ccccn4)C(=O)O)ccc3[nH]2)n1` [Compound (A), 2-{[2-(2-Methylamino-pyrimidin-4-yl)-1H-indole-5-carbonyl]-amino}-3-(phenyl-pyridin-2-yl-amino)-propionic acid]: the half-maximal inhibitory concentration (IC50) in data set [1] (setting [5]) came to 0.4 nM. Besides, the IC50 in data set [1] (setting [4]) is 0.08 nM. Besides, the ED50 in data set [2] (Mus musculus, intranasal nanomilled suspension, 0.3-10 mg/kg, IL-1β challenge, lung bioluminescence, read-out: estimated ED50, IL-1β-induced NF-κB activation) is about 1 mg/kg. In addition, the “effect on IL-1β-induced NF-κB activity” value in data set [2] is “inhibited in a dose-dependent manner”. In data set [3], the “systemic exposure after oral administration” value is “low systemic exposure”, the “systemic exposure after intratracheal administration” value is “low systemic exposure” and the Kp at 1 h was in the range of 143 to 284.
On to `CNc1nccc(-c2cc3cc(C(=O)N[C@@H](CN(c4ccccc4)c4ccccn4)C(=O)OC)ccc3[nH]2)n1` [(C)], for which the half-maximal inhibitory concentration (IC50) in data set [1] (setting [5]) came to 16.8 nM; in data set [1] (setting [4]) it was 378 nM.
With `CNc1nccc(-c2cc3cc(C(=O)N[C@@H](CN(c4ccccc4)c4ccccn4)C(=O)NOC)ccc3[nH]2)n1` [Compound (B)], in data set [1] (setting [5]), the concentration for half-maximal inhibition (IC50) turned out to be 0.8 nM. Further, the half-maximal inhibitory concentration (IC50) in data set [1] (setting [4]) stood at 56.4 nM. Also, the “effect on IL-1β-induced NF-κB activity” value in data set [2] was “inhibited in a dose-dependent manner”. The “lung exposure after i.t. instillation” value in data set [3] (0.3 mg/kg i.t., FIG. 3) was “low relative to Compound (A)”. Further, in data set [3], the “systemic exposure after oral administration” value is on record as “highly systemically available”, the “systemic exposure after intratracheal administration” value is on record as “highly systemically distributed” and the Kp at 1 h was 13 to 44.

A word on the IC50: it is the midpoint of a concentration-inhibition curve. The term ED50 denotes the dose that gives a 50% effect, or the effect in half of the subjects.
